Article PMC11475369, “Exploring the Potential of Synthetic Cannabinoids: Modulation of Biological Activity of Normal and Cancerous Human Colon Epithelial Cells” (Cells, 2024)

Tests used:
HT29 cells = assay: Nitric oxide (NOx) release in HT29 culture, Griess method; format: cell-based, human; conditions: HT29 cancer cells, 0–200 μg/mL, 24 h
Procedure: In this spectrophotometric method, the stable end products (nitrate and nitrite) were analyzed in the normal and tumor culture supernatants after 24 h of incubation of the cells with the cannabinoids in the concentration range of 0–200 μg/mL. The Griess reaction was applied. This method involves a 2-step reaction, whose product is a red-pink azo dye. The amount of this dye is directly proportional to the amount of NO. The cells were cultured for 24 h in 24-well plates (1 mL/well, density 1 × 10^5 cells/mL); next, after withdrawing the culture fluid, the tested cannabinoids were added to the wells at a volume of 1 mL/well and the incubation was carried out for another 24 h. After the incubation, the culture media were collected and frozen at −80 °C for no longer than 1 month. For calibration and quantitative analysis, the standard curve was prepared using 0.5–25 μM sodium nitrite (NaNO2). Thawed and centrifuged (5000 rpm/5 min.) supernatant samples and the standard were poured into a 96-well flat-bottomed plate at 100 µL/well. Each sample was analyzed in triplicate. […] Finally, the absorbance of the samples was spectrophotometrically read at 570 nm using an EL800 Universal Microplate Reader (BioTek Instruments, Winooski, VT, USA).

CCD 841 CoTr cells = assay: Nitric oxide (NOx) release in CCD 841 CoTr culture, Griess method; format: cell-based, human; conditions: CCD 841 CoTr normal cells, 0–200 μg/mL, 24 h
Procedure: In this spectrophotometric method, the stable end products (nitrate and nitrite) were analyzed in the normal and tumor culture supernatants after 24 h of incubation of the cells with the cannabinoids in the concentration range of 0–200 μg/mL. The Griess reaction was applied. This method involves a 2-step reaction, whose product is a red-pink azo dye. The amount of this dye is directly proportional to the amount of NO. The cells were cultured for 24 h in 24-well plates (1 mL/well, density 1 × 10^5 cells/mL); next, after withdrawing the culture fluid, the tested cannabinoids were added to the wells at a volume of 1 mL/well and the incubation was carried out for another 24 h. After the incubation, the culture media were collected and frozen at −80 °C for no longer than 1 month. For calibration and quantitative analysis, the standard curve was prepared using 0.5–25 μM sodium nitrite (NaNO2). Thawed and centrifuged (5000 rpm/5 min.) supernatant samples and the standard were poured into a 96-well flat-bottomed plate at 100 µL/well. Each sample was analyzed in triplicate. Subsequently, 100 µL/well of Griess reagent (1% sulfanilamide/0.1% N-(1-naphthyl)ethylenediamine dihydrochloride) in 3% H3PO4 was added to all wells and incubated at room temperature for 10 min. Finally, the absorbance of the samples was spectrophotometrically read at 570 nm using an EL800 Universal Microplate Reader (BioTek Instruments, Winooski, VT, USA).

**Q.** How did the “Effect on release of nitric oxide NOx (in words)” value (from here on “Effect on release”) (HT29 cells) turn out when `CCCCCc1cc(O)c2c(c1)OC(C)(CCC=C(C)C)C=C2` (stereo not shown) [CBC, cannabichromene] was run?
**A.** Its value is “reduction in NOx levels with increasing cannabinoid concentration”.

**Q.** What about the “Effect on release” value (CCD 841 CoTr cells) of the same molecule?
**A.** The value was “reduction in NOx levels with increasing cannabinoid concentration”.

**Q.** Which “Effect on release” value (HT29 cells) does the source give for `CCCCCc1cc2c3c(c1)OC(C)(C)C1CCC(C)(CC31)O2` (stereo not shown) [CBT, cannabicitran] here?
**A.** The value was “statistically insignificant stimulating effect”.

**Q.** And the “Effect on release” value (CCD 841 CoTr cells)?
**A.** Its value is “reduced the level of this molecule”.
